Tests used:
Format in all cases: cell-based
HL60 cells = experiment: Anti-proliferation on HL60 cells (CellTiter-Glo, 3 days); conditions: Homo sapiens, HL-60, 72 h, 3 days incubation, CTG luminescence, IC50 by XLfit, read-out: HL60 cells Proliferation inhibitory activity
Description: HL60 cells (Cell Bank of Chinese Academy of Sciences) in the logarithmic growth phase were counted and plated evenly in a 96-well transparent bottom white plate at 20000 cells per well and 100 μL per well.
A certain amount of the compound of the present invention was weighed and diluted with DMSO to a 10 mM stock solution. The culture medium RPMI-1640 (meilunbio, MA0215) corresponding to the cells were taken, and the compound was diluted to the concentration required by the test, shaken gently and mixed evenly. 50 μL of the gradient dilution of the diluted compound was added to each well of the plated cells, and 50 μL of 0.1% DMSO was added to the control group. The plate was shaken gently, mixed evenly and incubated in a cell culture incubator for 3 days.
• 3.1 The CellTiter-Glo™ (CTG) (purchased from Promega, Cat. No. G9242) reagent was taken in advance from the −20° C. refrigerator and equilibrated to room temperature in the dark. Cell Titer-Glo buffer and Cell Titer-Glo substrate were mixed at a ratio of 1:1 to prepare a CTG detection reagent. • 3.2 The 96-well plate was taken out and inspected under a microscope for growth. • 3.3 The bottom of the 96-well plate was tagged with white paper, and then the plate was wrapped with tin foil paper, shaken at 37° C. at 300 r for 10 min and mixed evenly. • 3.4. 50 μL of CTG detection reagent was added to each well, Luminescence signal was detected using a microplate reader Biotek Synergy Hi, and the inhibition rate was calculated. IC50 values of the compounds were calculated by XLfit 5.5.0 software to evaluate the proliferation inhibitory activity on HL60 cells.

c-Myc protein = molecular target: T1, c-Myc protein (Homo sapiens, UniProt P01106); experiment: c-Myc protein degradation in HL60 cells (Western blot); conditions: HL-60, compound at 10 nM, 24 h, gray value relative to Ctrl (DMSO), read-out: Remaining amount of c-Myc protein (@10 nM/Ctrl)
T1 construct: degradation of myc and GSPT1 proteins in HL60 cells; endogenous in cells; host or cells: HL60
T1 sequence (P01106 whole entry): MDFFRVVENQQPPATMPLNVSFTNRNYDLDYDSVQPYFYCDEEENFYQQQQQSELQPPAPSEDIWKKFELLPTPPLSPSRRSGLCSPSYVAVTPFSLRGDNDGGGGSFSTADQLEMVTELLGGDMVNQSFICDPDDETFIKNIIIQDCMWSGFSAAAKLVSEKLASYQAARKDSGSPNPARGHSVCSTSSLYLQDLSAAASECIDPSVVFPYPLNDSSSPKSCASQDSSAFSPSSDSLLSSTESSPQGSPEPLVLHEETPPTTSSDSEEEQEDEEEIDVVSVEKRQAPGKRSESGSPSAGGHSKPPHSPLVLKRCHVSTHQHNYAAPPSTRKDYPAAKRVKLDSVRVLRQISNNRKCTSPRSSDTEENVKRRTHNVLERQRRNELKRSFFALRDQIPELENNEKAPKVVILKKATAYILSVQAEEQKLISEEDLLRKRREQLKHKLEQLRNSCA
Description: (§1) HL60 cells in the exponential growth phase were digested and plated into a 6-well plate at 1×10^6 cells per well. The cell culture medium was RPMI-1640 (meilunbio, MA0215). After a day of adherent growth of the cells, the compound of the present invention was added as a test drug for culture, and proteins were extracted 24 h later (Ctrl meant adding only DMSO at the same volume).
(§2) In the 6-well plate, the culture medium RPMI-1640 (meilunbio, MA0215) was removed, and the cells were washed once with PBS, digested with trypsin, and centrifuged and collected separately into 1.5 mL centrifuge tubes. 100 μL of RIPA lysis buffer (containing 100 μM PMSF) was added to each tube, mixed thoroughly, allowed to stand on ice for 30 min and then centrifuged at 12000 rpm at 4° C. using a centrifuge for 20 min. The supernatant was used for Western blotting experiments. The sample can be stored at −80° C.
(§3) By using the BCA protein concentration determination kit (from Thermo Fisher, Cat. No. 23225), the BSA standard determination solution and the samples to be tested (the samples to be tested can be diluted and then tested) were prepared according to the table A below. Samples were added to the 96-well plate. Each well was supplemented with PBS to 20 μL, and then 200 μL of BCA working solution (prepared according to the kit) was added respectively and mixed evenly. The plate was placed at 60° C. for 10 min, and then the absorbance at 562 nm was detected. After the reading was recorded, a standard curve was plotted using concentration gradients of the standards, and the absorbance of the samples was substituted to calculate the protein concentration of the samples.
(§4) • 2.1 Protein denaturation: RIPA protein buffer (purchased from Solarbio, Cat. No. R0010) and 5× Loading Buffer (SDS, glycerin, bromophenol blue, TRIS) (purchased from Solarbio, Cat. No. P1040) were added, and the protein samples were denatured at 100° C. for 5 min. • 2.2 Sample loading and electrophoresis: 10% precast gel and the corresponding electrophoresis buffer were used. The same mass of protein sample and protein ladder (purchased from thermo, Cat. No. 26617) were loaded into each well, and electrophoresis at 200 V was performed for 30 min. • 2.3 […]: The gel was excised to remove the excess part. Transferring to PVDF membrane was performed by the wet transfer method (before use, it was necessary to activate the PVDF membrane with methanol for 1 min) at 300 mA for 2 h, during which a lot of heat was generated, and thus cooling with an ice box was required. • 2.4 Blocking: After the transferring, the PVDF membrane was placed in 5% skim milk and blocked with shaking at room temperature for 1 h. • 2.5 Incubating with primary antibody: The PVDF membrane was cut according to the molecular weight indicated on the marker and placed in c-myc (purchased from abcam, Cat. No. ab32072), or GSPT1 (purchased from abcam, Cat. No. ab234433), or CK1α (purchased from abcam, Cat. No. ab206652), or IKZF2 (purchased from proteintech, Cat. No. 13554-1-AP), and GAPDH (purchased from CST, Cat. No. #97166) primary antibodies. The antibodies were diluted with TBST buffer (a solution prepared from TRIS, KCL and NaCl and adjusted to pH 7.4 with hydrochloric acid, and Tween 20 was added) at a ratio of 1:1000, and blocked overnight on a shaker at 4° C. • 2.6 Incubating with secondary antibody: The PVDF membrane incubated with the primary antibody was washed with TBST for 3 times, each time for 10 min. After washing, the membrane was placed in the secondary antibody of the corresponding species, and incubated at room temperature in a shaker for 2 h. • 2.7 Washing membrane and exposure: After incubated with the secondary antibodies, the membrane was washed 3 times with TBST on a shaker, 10 minutes each time. […]

GSPT1 protein = molecular target: T2, GSPT1 protein (Homo sapiens, UniProt P15170); experiment: GSPT1 protein degradation in HL60 cells (Western blot); conditions: for remaining GSPT1 protein at 0.01 µM: HL-60, compound at 10 nM, 24 h, gray value relative to Ctrl (DMSO), read-out: Remaining amount of GSPT1 protein (@10 nM/Ctrl)
T2 construct: degradation of myc and GSPT1 proteins in HL60 cells; endogenous in cells; host or cells: HL60
T2 sequence (P15170 whole entry): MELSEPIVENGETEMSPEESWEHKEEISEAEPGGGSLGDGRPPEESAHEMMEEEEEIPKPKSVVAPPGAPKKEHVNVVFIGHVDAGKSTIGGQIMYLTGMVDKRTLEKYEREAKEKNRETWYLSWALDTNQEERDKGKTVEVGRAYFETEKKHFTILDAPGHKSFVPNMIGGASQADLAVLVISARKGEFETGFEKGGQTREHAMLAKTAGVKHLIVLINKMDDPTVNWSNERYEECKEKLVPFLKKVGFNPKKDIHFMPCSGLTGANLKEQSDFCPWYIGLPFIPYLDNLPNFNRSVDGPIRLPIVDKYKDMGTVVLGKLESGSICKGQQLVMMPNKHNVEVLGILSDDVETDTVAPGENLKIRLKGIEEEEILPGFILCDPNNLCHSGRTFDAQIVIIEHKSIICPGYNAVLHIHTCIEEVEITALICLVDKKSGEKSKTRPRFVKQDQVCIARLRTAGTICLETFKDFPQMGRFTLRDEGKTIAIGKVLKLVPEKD
Description: as §1, §2, §3, §4

Row | Structure (SMILES) | IC50 (HL60 cells) [nM] | remaining activity at 0.01 µM (c-Myc protein) [%] | remaining GSPT1 protein at 0.01 µM (GSPT1 protein) [%] | Degradation of GSPT1 protein in HL60 cells at 300 nM (FIG. 2, FIG. 3, in words) (GSPT1 protein)
1 | O=C1CCC(N2Cc3cc(NC(=O)CC4CCN(c5ccc(-c6cccc7cccnc67)cn5)CC4)ccc3C2=O)C(=O)N1 (stereo not shown) [Compound A43] | < 0.2 | 23 | – | –
2 | Cc1cccc(-c2cnc(N3CCC(CNCc4ccc5c(c4)CN(C4CCC(=O)NC4=O)C5=O)CC3)nc2)c1 (stereo not shown) [Compound A68] | < 0.2 | 0 | 0 | –
3 | O=C1CCC(N2Cc3cc(NC(=O)CC4CCN(c5ccc(-c6cccc7cccc(F)c67)cn5)CC4)ccc3C2=O)C(=O)N1 (stereo not shown) [Compound A47] | < 0.2 | 19 | – | –
4 | Cc1cccc(-c2cnc(N3CCC(F)(CNCc4ccc5c(c4)CN(C4CCC(=O)NC4=O)C5=O)CC3)c(C(F)(F)F)c2)c1 (stereo not shown) [Compound A85] | 1 | 8 | 3 | –
5 | O=C1CCC(N2Cc3cc(CNCC4CCN(c5ncc(-c6cccc(F)c6)cn5)CC4)ccc3C2=O)C(=O)N1 (stereo not shown) [Compound A67] | 2 | 19 | 25 | –
6 | O=C1CCC(N2Cc3cc(NC(=O)CC4CCN(c5ccc(-c6cccc7ccccc67)nc5)CC4)ccc3C2=O)C(=O)N1 (stereo not shown) [Compound A37] | 0.2 | 44 | – | –
7 | O=C1CCC(N2Cc3cc(CNCC4CCN(c5ncc(-c6cccc(Cl)c6)cc5F)CC4)ccc3C2=O)C(=O)N1 (stereo not shown) [Compound A73] | < 0.2 | 0 | 0 | –
8 | O=C1CCC(N2Cc3cc(CNCC4CCN(c5cnc(-c6cccc7ccccc67)nc5)CC4)ccc3C2=O)C(=O)N1 (stereo not shown) [Compound A64] | 10 | 0 | 5 | –
9 | O=C1CCC(N2Cc3cc(CNCC4CCN(c5ncc(-c6cccc(Cl)c6)cn5)CC4)ccc3C2=O)C(=O)N1 (stereo not shown) [Compound A66] | < 0.2 | 9 | – | –
10 | O=C1CCC(N2Cc3cc(C(=O)NCC4CCN(c5ncc(-c6cccc7ccccc67)cn5)CC4)ccc3C2=O)C(=O)N1 (stereo not shown) [Compound A29] | 0.2 | 13 | – | –
11 | O=C1CCC(N2Cc3cc(NC(=O)CC4CCN(c5ncc(-c6cccc7ccccc67)o5)CC4)ccc3C2=O)C(=O)N1 (stereo not shown) [Compound A28] | 0.9 | 43 | – | –
12 | O=C1CCC(N2Cc3cc(NC(=O)CC4CCN(c5ncc(-c6cccc7ccccc67)cn5)CC4)ccc3C2=O)C(=O)N1 (stereo not shown) [Compound A30] | < 0.2 | 14 | – | –
13 | O=C1CCC(N2Cc3cc(NC(=O)CC4CCN(c5cc(-c6cccc7ccccc67)ccn5)CC4)ccc3C2=O)C(=O)N1 (stereo not shown) [Compound A17] | 1.2 | 23 | – | –
14 | O=C1CCC(N2Cc3cc(NC(=O)CC4CCN(c5ncc(-c6cccc7ccccc67)s5)CC4)ccc3C2=O)C(=O)N1 (stereo not shown) [Compound A24] | 0.5 | 0 | – | –
15 | O=C1CCC(N2Cc3cc(NC(=O)CC4CCN(c5ncc(-c6cccc(Cl)c6)cn5)CC4)ccc3C2=O)C(=O)N1 (stereo not shown) [Compound A53] | < 0.2 | 10 | – | –
16 | O=C1CCC(N2Cc3cc(CNCC4(F)CCN(c5ncc(-c6cccc(Cl)c6)cc5F)CC4)ccc3C2=O)C(=O)N1 (stereo not shown) [Compound A84] | 2.6 | – | – | –
17 | O=C1CCC(N2Cc3cc(C(=O)NCC4CCN(c5nccc(-c6ccc7ccccc7c6)n5)CC4)ccc3C2=O)C(=O)N1 (stereo not shown) [Compound A38] | 0.9 | 52 | – | –
18 | O=C1CCC(N2Cc3cc(NC(=O)CC4CCN(c5cnc(-c6cccc7ccccc67)nc5)CC4)ccc3C2=O)C(=O)N1 (stereo not shown) [Compound A33] | 0.3 | – | – | –
19 | O=C1CCC(N2Cc3cc(NC(=O)CC4CCN(c5ccc(-c6cccc7ccccc67)nn5)CC4)ccc3C2=O)C(=O)N1 (stereo not shown) [Compound A32] | 12 | – | – | –

Now from value to compound:

Row | IC50 (HL60 cells) [nM] | remaining activity at 0.01 µM (c-Myc protein) [%] | remaining GSPT1 protein at 0.01 µM (GSPT1 protein) [%] | Degradation of GSPT1 protein in HL60 cells at 300 nM (FIG. 2, FIG. 3, in words) (GSPT1 protein) | Structure (SMILES)
20 | 387 | – | – | significantly degrade GSPT1 protein | O=C1CCC(N2Cc3ccc(CNCC4CCN(c5ncc(-c6cccc(Cl)c6)cc5C(F)(F)F)CC4)cc3C2)C(=O)N1 (stereo not shown) [Compound A145]
21 | < 0.2 | 0 | 0 | – | COC(=O)c1cc(-c2cccc(Cl)c2)cnc1N1CCC(CNCc2ccc3c(c2)CN(C2CCC(=O)NC2=O)C3=O)CC1 (stereo not shown) [Compound A100]
22 | 17.1 | 95 | 47 | – | O=C1CCC(N2Cc3cc(CNCC4CCN(c5ncc(-c6cccc(Cl)c6)cc5C(F)(F)F)CC4)c(F)cc3C2=O)C(=O)N1 (stereo not shown) [Compound A140]
23 | 1 | 157 | 3 | – | N#Cc1cc(-c2cccc(Cl)c2)cnc1N1CCC(CNCc2ccc3c(c2)CN(C2CCC(=O)NC2=O)C3=O)CC1 (stereo not shown) [Compound A98]
24 | 139 | – | – | significantly degrade GSPT1 protein | O=C1CCC(n2nc3cc(CNCC4CCN(c5ncc(-c6cccc(Cl)c6)cc5C(F)(F)F)CC4)ccn3c2=O)C(=O)N1 (stereo not shown) [Compound A146]
25 | 1.3 | 6 | 2 | – | N#Cc1cccc(-c2cnc(N3CCC(CNCc4ccc5c(c4)CN(C4CCC(=O)NC4=O)C5=O)CC3)c(F)c2)c1 (stereo not shown) [Compound A111]
26 | < 0.2 | 0 | 0 | – | COc1cccc(-c2cnc(N3CCC(CNCc4ccc5c(c4)CN(C4CCC(=O)NC4=O)C5=O)CC3)c(C(F)(F)F)c2)c1 (stereo not shown) [Compound A95]
27 | 9.1 | 46 | 1 | – | O=C1CCC(N2Cc3cc(CNCC4CCN(c5ncc(-c6ccccc6F)cc5F)CC4)ccc3C2=O)C(=O)N1 (stereo not shown) [Compound A107]
28 | < 0.2 | 0 | 0 | – | COc1cccc(-c2cnc(N3CCC(CNCc4ccc5c(c4)CN(C4CCC(=O)NC4=O)C5=O)CC3)c(F)c2)c1 (stereo not shown) [Compound A112]
29 | 20.5 | – | – | – | O=C1CCC(N2Cc3cc(CNCC4CCN(c5ccc(-c6cccc(Cl)c6)cc5C(F)(F)F)CC4)ccc3C2=O)C(=O)N1 (stereo not shown) [Compound A104]
30 | 268 | – | – | – | O=C1CCC(NC(=O)c2ccc(CNCC3CCN(c4ncc(-c5cccc(Cl)c5)cc4C(F)(F)F)CC3)cn2)C(=O)N1 (stereo not shown) [Compound A156]

Source: US20250059162A1, “MULTI-PROTEIN DEGRADATION AGENT HAVING IMIDE SKELETON” (SUZHOU KINTOR PHARMACEUTICALS, INC., priority 2021, published 2025)
